Where two headings read alike, the source gives them in different places.
Columns and labels:
[1] = cited from earlier work; for ED50: each compound alone, as reported by Maruyama Y. et al
[2] = test system: carrageenin-induced oedema; test: Anti-inflammatory effect, rat paw oedema test; assay type: in vivo; conditions: oral gavage
Method: I. TEST MATERIALS: Thioacetamol, Indomethacin (Indomet)
The test drugs, suspended in 1% methyl cellulose (MC),
were administered by oral gavage to groups of male rats
(6 rats/group). Controls were given MC only.
2. Three hours following the test drug administration,
0.1 ml carrageenin (1% in saline) was injected
sub-plantar into the right hind paw. Identically
saline-injected left hind paw served
3. Readings were taken on each paw 3 hours following
injection of the test drug. The volume of both
hind paws was measured with an Hg-displacement
Volumeter (Huge, Basile, Italy).
Evaluation of anti-inflammatory activity was based on
the difference in volume (ΔV) between
the right (carrageenin-induced oedema) and left
(saline-control) hind paws.
Data was calculated by ranking ΔV values obtained
in drug-treated and control rats and expressed
percent increase over control for normal

[3] = cited from earlier work; for LD50: in vivo
[4] = test system: hepatic parenchyma; conditions: compared with parent paracetamol; cited from earlier work
[5] = in vivo, 500 mg/kg
Source text: It must be also pointed out that the combination of very low doses of each component is not toxic.

[6] = test system: yeast-induced fever; test: Anti-pyretic effect (yeast-induced) test in rats; assay type: in vivo, rat; conditions: oral gavage
Method: Anti-pyretic effect of Combination of Thiocetamol with Aspirin
(yeast-induced) test in rats
I. TEST MATERIALS: Thioacetamol, Aspirin
1. Fever in test animals was induced by subcutaneous
injection of yeast (10% in saline). Basal
rectal temperature (BRT) was determined in all
test animals with the aid of a YSI thermistor probe
2. Four hours after the yeast injection a test drug
suspended in 1% methyl cellulose (MC), was
administered by oral gavage to groups of
male rats (8 rats/group). Controls were
3. Measurements of rectal temperatures (ERT) in
response to the various treatments, were
carried out at 1, 3 and 5 hours after
the test drug administration.
Evaluation of anti-pyretic activity was based on the
temperature difference (Δt) between BRT and ERT at
each of the three respective test periods
for each treatment group.
Data was calculated by ranking Δt values obtained in
test drug-treated and control rats and expressed

[7] = single oral dose, cited from earlier work

## O=C(O)Cc1ccccc1Nc1c(Cl)cccc1Cl [Diclofenac]
[1]
  ED50: 5 mg/kg

## CC(=O)Nc1ccc(OC(=O)c2cccs2)cc1 [Thiocetamol, p-acetamidophenyl thiophene-2-carboxylate]
[2]; 150 mg/kg
  ΔV (percent over control): 90%
[2]; 300 mg/kg
  ΔV (percent over control): 70%
[2]; 600 mg/kg
  ΔV (percent over control): 62%
[3]; compared with parent paracetamol, in words
  acute median lethal dose (LD50): far lower than that of the parent paracetamol
[3]
  LD50: around 2000 mg/kg
[4]
  toxicity towards the hepatic parenchyma: remarkable lower toxicity towards the hepatic parenchyma
[5]
  toxic effects: without any toxic effects
[6]; 75 mg/kg
  Δt at 1 hour: 86%
  Δt at 3 hour: 91%
  Δt at 5 hour: 91%
[6]; 150 mg/kg
  Δt at 1 hour: 47%
  Δt at 3 hour: 96%
  Δt at 5 hour: 84%
[6]; 300 mg/kg
  Δt at 1 hour: 26%
  Δt at 3 hour: 40%
  Δt at 5 hour: 61%

## CC(C)Cc1ccc(C(C)C(=O)O)cc1 (stereo not drawn) [Ibuprofen]
[1]
  ED50: 60 mg/kg

## CC(=O)Oc1ccccc1C(=O)O [Aspirin]
[3]
  LD50: 1000 mg/kg
[1]
  ED50: 500 mg/kg
[6]; 50 mg/kg
  Δt at 1 hour: 86%
  Δt at 3 hour: 83%
  Δt at 5 hour: 67%
[6]; 100 mg/kg
  Δt at 1 hour: 67%
  Δt at 3 hour: 55%
  Δt at 5 hour: 56%
[6]; 200 mg/kg
  Δt at 1 hour: 49%
  Δt at 3 hour: 29%
  Δt at 5 hour: 19%
[7]; 100 mg/kg
  Gastric lesions: 0%
  Intestinal lesions: 0%
[7]; 300 mg/kg
  Gastric lesions: 60%
  Intestinal lesions: 10%
[7]; 600 mg/kg
  Gastric lesions: 100%
  Intestinal lesions: 10%

## COc1ccc2c(c1)c(CC(=O)O)c(C)n2C(=O)c1ccc(Cl)cc1 [Indomethacin]
[2]; 1 mg/kg
  ΔV (percent over control): 85%
[2]; 2 mg/kg
  ΔV (percent over control): 63%
[2]; 4 mg/kg
  ΔV (percent over control): 58%
[3]
  LD50: 15.2 mg/kg
[1]; as reported
  anti-inflammatory dose (ED50): 3.5 mg/kg
[1]
  ED50: 3.6 mg/kg
[7]; 3 mg/kg
  Gastric lesions: 0%
  Intestinal lesions: 0%
[7]; 10 mg/kg
  Gastric lesions: 100%
  Intestinal lesions: 30%

Reference: patent US4859658A, “Compound compositions with improved analgesic antipyretic and anti-inflammatory activity” (Ricerfarma S.R.L., priority 1987, dated 1989)
